Measured values published in patent US20260097047A1, “Small molecule inhibitors of the ribosome biogenesis factor NVL2” (Board of Regents, The University of Texas System, priority 2023, published 2026).
Like-named read-outs stand apart in the source and are kept apart here.

Experiments:
902 cancer cell lines = assay: PRISM screen across 902 cancer cell lines; type: cell-based; conditions: 902 cancer cell lines, 1,215 compounds
From the text: (§1) Inhibition of 60S ribosome biogenesis is known to induce the stability and upregulation of p53, which could serve as a potential pharmacodynamics marker for MM017 in HCT116 cells. […] We used PRISM (Broad Institute) to evaluate the selectivity of MM017 across 902 cancer cell lines and then correlated this selectivity to 1,215 clinical and pre-clinical compounds in the PRISM database. […] These observations indicate that oxaliplatin and carmofur, like MM017, target ribosome biogenesis.
To nominate genetic predictors of MM017 sensitivity across different cancer types, we performed a PRISM screen across 902 cancer cell lines with known genotypes (31). […] These findings are consistent with the isogenic CRISPR screen and indicate that p53 is a critical effector for MM017 in cancer cells from multiple lineages and with differing genotypes.

NVL-AID = assay: Viability of NVL^AID/AID cells on auxin-induced NVL degradation; type: cell-based, human
From the text: To study the effect of NVL depletion, we engineered a C-terminal FLAG-epitope auxin-inducible degron (AID) tag into NVL in cells that also express the plant E3 ligase TIR1.

[1] = test system: serine 15 phosphorylated p53; assay: p53 serine 15 phosphorylation (DNA damage response marker); conditions: MM017 up to 10 μM
From the text: A biochemical marker for activation of the DNA damage response is phosphorylation of serine 15 of p53, which results in increased p53 protein (41). Thus, we compared the impact of MM017, oxaliplatin, and CX-5461 on both p53 upregulation and p53 serine 15 phosphorylation.

p53 and p21 = p53 and p21 protein levels in HCT116 cells; type: cell-based, human
From the text: as §1

NVL = target: T1, NVL (Homo sapiens, UniProt O15381); assay: Photo-crosslinking, affinity purification and probe displacement of NVL in cells; type: binding; parameters: endogenous in cells
T1 sequence (O15381 1-856): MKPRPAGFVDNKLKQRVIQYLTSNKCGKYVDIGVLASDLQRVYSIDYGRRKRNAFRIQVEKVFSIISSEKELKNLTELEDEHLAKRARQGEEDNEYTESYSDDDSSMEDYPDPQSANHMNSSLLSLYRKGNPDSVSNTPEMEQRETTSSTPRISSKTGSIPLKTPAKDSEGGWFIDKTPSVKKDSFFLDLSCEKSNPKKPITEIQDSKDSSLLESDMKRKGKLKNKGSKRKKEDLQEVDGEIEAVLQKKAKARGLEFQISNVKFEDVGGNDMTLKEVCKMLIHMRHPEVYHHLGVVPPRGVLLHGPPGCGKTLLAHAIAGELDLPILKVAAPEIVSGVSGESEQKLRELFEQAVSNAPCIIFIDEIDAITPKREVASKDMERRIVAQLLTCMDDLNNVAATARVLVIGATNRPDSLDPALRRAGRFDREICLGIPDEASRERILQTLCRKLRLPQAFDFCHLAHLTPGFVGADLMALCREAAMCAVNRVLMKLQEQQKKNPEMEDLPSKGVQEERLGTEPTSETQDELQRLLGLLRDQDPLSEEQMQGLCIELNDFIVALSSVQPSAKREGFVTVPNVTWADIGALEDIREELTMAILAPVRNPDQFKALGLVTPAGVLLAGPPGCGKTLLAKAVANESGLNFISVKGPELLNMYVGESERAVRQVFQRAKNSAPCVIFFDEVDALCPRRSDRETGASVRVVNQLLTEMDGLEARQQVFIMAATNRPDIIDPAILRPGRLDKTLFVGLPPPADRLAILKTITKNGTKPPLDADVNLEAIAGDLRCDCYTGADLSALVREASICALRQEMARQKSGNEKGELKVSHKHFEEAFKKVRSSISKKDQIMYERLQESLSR
From the text: To test whether NVL2 mutations prevent compound binding, we synthesized MM0514, a crosslinker derivative of MM017. MM0514 contains an aryl azide, and thus is capable of covalently modifying target proteins following exposure to UV light. MM0514 also contains an alkyne group providing a “handle” to purify bound proteins using click chemistry. Critically, MM0514 retains on-target activity to HCT116 cells since NVL2^R403W mutant cells are resistant. We crosslinked either parental or NVL2^R403W HCT116 cells to MM0514 and analyzed NVL2 binding. […] To characterize the binding site, we solved the cryo-EM structure of NVL2 with MM017. MM017 binds to a single site in the asymmetric hexamer near the D subunit. Consistent with our binding data, the mutations map near the binding site, including R403, which is mutated to tryptophan in a resistant clone and predicted to prevent binding of MM017 or related analogs. The cryo-EM structure of NVL2 with MM017 provides further evidence of target identification and also a tool for optimizing a bioavailable compound.
To assess whether MM017 binds directly to NVL in cells, we used a MM017 crosslinker (Probe compound (2), Table A) that is UV-activatable and contains an alkyne that can be coupled to biotin for affinity purification. […]

HCT116 NVL^P307T cells = assay: Cell viability in compound-resistant HCT116 NVL^P307T cells; type: cell-based, human
From the text: Assessing the ability of NVL2 inhibitors to selectively kill WT versus NVL2^mut HCT116, block ribosome biogenesis and induce p53. We evaluate analogs in the colorectal cancer cell line HCT116 and already available compound-resistant clones. One clone has a mutation in the compound binding site (NVL2^R403W) and another clone (NVL2^P307T) has a mutation distant from the binding site that confers resistance through an unknown effect. Based on our results, analogs that kill HCT116 cells via NVL2 inhibition (on-target) have reduced potency in compound-resistant HCT116 mutant clones. Our analogs have been counter-screened against the NVL2 compound-resistant mutant clones with fold resistance range between 10-100 fold (most analogs 20-50 fold). This counter screen provides a strategy for identifying off-target toxins.
From whole exome sequencing, we identified variants that were acquired during IAA-induced mutagenesis with the hypothesis that genes related to resistance will be mutated in multiple clones. Two genes contained acquired variants in at least 3 of the 15 selected clones: TERT, mutated in 3 of 15 clones, and NVL, mutated in all 15 clones. […] In sum, 57 out of 59 unique clones harbored NVL mutations. The majority of mutations clustered within the D1 AAA+ ATPase domain and frequently affecting the same codons. To test whether these mutations are sufficient for MM017 resistance, we used CRISPR-Cas9 to knock-in two of the most resistant mutations (NVL^P307T, NVL^R403W) and a mutation with intermediate resistance (NVL^H304R). Transfection of cells with sgRNAs targeting these NVL residues in addition to a mutation-encoding repair template yielded an increased rate of resistance when compared to mock treatments.
(§2) HCT116 cells were transfected with TransIT-LT (Mirus #MIR2304) according to manufacturer's protocol with a guide RNA (either mock or NVL targeting) in the px330 vector (Addgene, #42230), and 10 nM single stranded deoxyoligonucleotide encoding a specific NVL mutation (see below for specific sequences). 72 hours after transfection, cells were selected by MM017 treatment. The resulting cells were evaluated by cresyl violet staining or collected and the relevant NVL mutations were analyzed by either amplicon or sanger sequencing.
Cell viability assay: In 96-well assay plates (Corning #2903), 2,000 cells were plated per well in 100 μL of medium and allowed to adhere overnight. The next day, compounds suspended in DMSO were dispensed to the assayed wells using a D300e Digital Dispenser (Tecan). All wells were normalized to 0.5% DMSO. 72 hours after incubation at 37° C. in 5% CO2, cell viability was assayed using an ATP-based luminescent viability assay, CellTiter-Glo (Promega #G8462). Substrate was mixed 1:1 with phosphate-buffered saline (PBS) supplemented with 1% Triton X-100, and 40 μL of this mixture was added to the assay wells. Plates were shaken on a microplate shaker for 10 minutes at room temperature. Luminescence (CellTiter-Glo) was recorded using a Synergy 2 microplate reader (BioTek). In Prism 9 software (GraphPad), ten-point dose response curves were plotted with baseline-correction to the vehicle control well, and IC50 values were calculated by curve fitting using asymmetric (five parameter), least squares fit.

HCT116 cells = assay: Cell viability assay (CellTiter-Glo, 72 hours) in HCT116 human colorectal cancer cells; type: cell-based; conditions: Homo sapiens, HCT-116
Procedure, shortened: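 2,000 cells/well adhered overnight, then compound added by digital dispenser with DMSO normalized to 0.5%. Viability read after 72 h at 37 °C by ATP-based CellTiter-Glo luminescence. IC50 from ten-point curves baseline-corrected to vehicle, five-parameter asymmetric least-squares fit.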

cleaved caspase-3 = assay: Cleaved caspase-3 (apoptosis), HCT116 control and p53 KO cells; type: cell-based, human
From the text: The upregulation of p53 and its effector p21 can arrest cell growth or induce cell death through apoptosis. […] Next, we addressed whether cell death was mediated by an apoptotic pathway by assaying for cleaved caspase-3, a bona fide marker of apoptosis.

[2] = test system: p53 KO and p21 KO HCT116 cells; assay: Growth competition of p53 or p21 knockout versus control HCT116 cells; type: cell-based, human
From the text: To better understand how inhibition of NVL by MM017 leads to cell death, we performed a genome wide pooled CRISPR/Cas9 knockout screen in HCT116 cells using a library of guide RNAs targeting 19,114 genes. Cells were pulsed intermittently with vehicle or MM017 over 21 days, at which point MM017 treated cells had undergone 9.79 fewer population doublings. Massively parallel sequencing of PCR products amplified from genomic DNA was used to determine relative levels of sgRNA sequences to infer the relative impact of each gene on compound sensitivity. […] To confirm whether p53 and p21 are required for the anti-proliferative activity of MM017, we performed a growth competition experiment between cells expressing ZsGreen with either p53 or p21 knockout (KO) and control cells expressing mCherry. Without treatment, the ratio between green and red cells was unchanged over time.

HCT116 NVL^R403W cells = assay: Cell viability counter-screen in compound-resistant HCT116 NVL^R403W cells; type: cell-based, human; conditions: NVL^P307T, NVL^R403W or NVL^H304R cells
Protocol: Design and synthesis of benzothiazepine-based NVL inhibitors. […] Analogs were evaluated against the colorectal cancer cell line HCT116, and counter-screened against a compound resistant NVL2^R403W clone. Cytotoxicity in wild-type HCT116 was determined. […] Initial SAR focused on exploring the replacement of the furan ring of initial dibenzothiazepinone hit MM017. We first explored a wide variety of mono- and di-substituted phenyl rings, including a broad spectrum of functionality (F, Cl, alkyl, alkoxy, fluoroalkoxy, CN, formamide, S(O) Me, carboxyl, . . . ). […]
as §2, with “72 hours after transfection, cells were selected by MM017 treatment.” left out
Cell viability assay: In 96-well assay plates (Corning #2903), 2,000 cells were plated per well in 100 μL of medium and allowed to adhere overnight. […] Luminescence (CellTiter-Glo) was recorded using a Synergy 2 microplate reader (BioTek). […]

[3] = test system: HCT116 control and p53 KO cells; assay: Cell death by loss in membrane permeability, HCT116 control and p53 KO cells; type: cell-based, human; conditions: five-day treatment

CCCCCCNC(=O)n1cc(F)c(=O)[nH]c1=O [carmofur]
correlation (r) of selectivity with MM017 (902 cancer cell lines): 0.53

O=C(O)Cc1c[nH]c2ccc(-c3ccccc3)cc12 [Ph-IAA, 5-Phenyl-indole-3-acetic acid]
viability of NVL^AID/AID cells (NVL-AID): reduced viability in a dose-dependent manner

O=C1[O][Pt]2([NH][C@@H]3CCCC[C@H]3[NH]2)[O]C1=O [oxaliplatin, reference compound]
serine 15 phosphorylated p53 [1]: dose-dependent increase in phosphorylated p53 | p53 levels in parental HCT116 cells (p53 and p21): dose-dependent increase in the levels of p53

C#CCOCCN1C(=O)c2ccccc2Sc2cc(NC(=O)c3ccc(N=[N+]=[N-])cc3)ccc21 [Probe compound 2, 4-Azido-N-(11-oxo-10-(2-(prop-2-yn-1-yloxy)ethyl)-10, 11-dihydro-dibenzo[b,f][1,4]thiazepin-7-yl)benzamide]
NVL crosslinked to / purified with probe (NVL; UV light): only detected in conditions that included both the MM017-probe and UV light | resistance of NVL^P307T cells (HCT116 NVL^P307T cells): comparatively resistant | IC50 (HCT116 cells; read-out: IC50, proliferation of HCT116 cells): 470 nM

CN[C@@H]1C[C@H]2O[C@@](C)([C@@H]1OC)n1c3ccccc3c3c4c(c5c6ccccc6n2c5c31)C(=O)NC4 [Staurosporine, reference compound]
cleaved caspase-3 (cleaved caspase-3): robust caspase activation in both control and p53 KO cells

CC(=O)O[C@H]1C(=O)[C@@]2(C)[C@H]([C@H](OC(=O)c3ccccc3)[C@]3(O)C[C@H](OC(=O)[C@H](O)[C@@H](NC(=O)c4ccccc4)c4ccccc4)C(C)=C1C3(C)C)[C@]1(OC(C)=O)CO[C@@H]1C[C@@H]2O [paclitaxel, reference compound]
enrichment of p53 or p21 KO cells in growth competition [2]: no competitive advantage | sensitivity of NVL mutant cells compared to NVL^WT (HCT116 NVL^R403W cells): equally sensitive | cell death in p53 KO versus control cells [3]: cell death irrespective of p53

COCCN1C(=O)c2ccccc2Sc2cc(NC(=O)c3ccc(OC)cc3)ccc21 [compound 3]
displacement of MM017-probe from NVL (NVL; NVL-FLAG knock-in cell line, increasing doses): more effectively displaced MM017-probe | IC50 (HCT116 cells; read-out: IC50s (cellular activity of MM017 derivatives)): 360 nM
